Non-standard residues stand in square brackets, D forms with d. No end group written: not given here. Aib = CC(C)(N)C(=O)O

Data set [1] is described as follows: Stability of peptide/phospholipid complexes by visual inspection. The following applies: SM, PC/SM 70/30. The class given is physicochemical. As to the method: Separate stock solutions of peptide and phospholipids were prepared in a solvent mixture composed of 80% tert-butyl alcohol (TBA) and 20% water to obtain separate solutions of 10 mM peptide, 20 mM 1,2-dioleoyl-sn-glycero-3-phosphocholine (DOPC) or 20 mM 1-palmitoyl-2-oleoyl-phosphatidylcholine (POPC) and 20 mM egg SM. Aliquots of stock solution were combined to obtain a final solution containing 10 mole equivalents of peptide, 42 mole equivalents of phosphatidylcholine and 18 mole equivalents of SM. The solutions were combined in a 1.5 ml glass vial, frozen (−70° C.), and lyophilized at −5 to −10° C. overnight. The resultant lyophilized cakes were rehydrated by addition of Dulbeco's phosphate buffered saline followed by gentle swirling of the contents. Formation of PALM was completed by incubating the PALM solution at 50° C. for 10 minutes. […] The qualities of the PALM preparations were evident in their appearance. A visually clear preparation indicated any nanoparticles that had formed were less than approximately 20 nm diameter.

The next data set relates to BHK(SR-BI) cells. The experiment in a line: DiI uptake from PALM or HDL by BHK(SR-BI) cells, SR-BI un-induced or induced. The following applies: for Increase Over Un-induced: DiI uptake, induced vs un-induced cells; for Induced DiI Uptake: SR-BI induced (10 nM mifepristone) BHK(SR-BI) cells; for Induced DiI Uptake / Un-induced DiI Uptake: 4 hours, mean ± SEM, n = 4; for Un-induced DiI Uptake: un-induced BHK(SR-BI) cells, relative to protein (HDL) or peptide (PALM) concentration. The class given is cell-based, hamster. As to the method:
SR-BI interaction studies are done with BHK(SR-BI) cells obtained from the NIH. The cells were stably transfected with an inducible human SR-BI gene by means of the GeneSwitch™ System (Invitrogen). The cells were plated (96-well plate) (8000 cells/well) in growth medium (Dulbeco's modified Eagle medium containing 10% fetal bovine serum) containing 200 ug/ml each of zeocin and hygromycin. After 24 hours incubation, the growth medium was removed and replaced with 0.2% bovine serum albumin in Dulbeco's modified Eagle medium. The medium of cells to be induced for SR-BI expression also contained 10 nM mifepristone, added from a DMSO stock solution. DMSO alone was added to the medium of uninduced cells. The induction medium was removed after 24 hours and replaced with medium containing DiI-labeled PALM (32 μg peptide/ml) or DiI-labeled HDL (19 μg protein/ml) (Kalen Biomedical, Montgomery Village, Md.). The test media were prepared by diluting an aliquot of Di-I-labeled PALM (Example 5) or the DiI-labeled HDL in 0.2% bovine serum albumin in Dulbeco's modified Eagle medium. The solutions were passed through 0.2 μm pore size, polyethersulfone, sterilization filters before use. The cells were incubated for 4 hours. Next, the cells were washed 3 times with 0.1% albumin in Dulbeco's phosphate buffered saline (with calcium and magnesium). The last wash was replaced with 200 ul/well of t-butanol/water (95%/5%). The covered plate was left to stand at ROOM TEMPERATURE for 30 min with occasional shaking. The fluorescence in each well was detected at 520 nm excitation and 580 nm emission with a 550 nm cutoff filter on a Molecular Dynamics Gemini fluorescence plate reader (FIG. 9).

In the case of DVFQKLVELFNQLLEKWKQV [SEQ ID NO: 26], in data set [1] (POPC, C16PTX/PL mole ratio 0), the “Stability by visual inspection (appearance)” value (“Stability by visual inspection” below) is “Clear”. Also, the “Stability by visual inspection” value in data set [1] (POPC, C16PTX/PL mole ratio 0.1) is given as “Turbid”. In addition, in the data set with BHK(SR-BI) cells, the “Increase Over Un-induced” value turned out to be 65%, the “Induced DiI Uptake” value worked out at 0.81 ± 0.04 pmol/µg/mL and the “Un-induced DiI Uptake” value is 0.49 ± 0.04 pmol/µg/mL.

Regarding “DVFQKL{AIB}ELFNQLLEKWKQV (DVFQKL[Aib]ELFNQLLEKWKQV) [SEQ ID NO: 25]”, the “Stability by visual inspection” value in data set [1] (DOPC, C16PTX/PL mole ratio 0) is recorded as “Clear”; in data set [1] (DOPC, C16PTX/PL mole ratio 0.1), “Clear”; in data set [1] (POPC, C16PTX/PL mole ratio 0) it was “Clear”; in data set [1] (POPC, C16PTX/PL mole ratio 0.1), “Clear”. The “Increase Over Un-induced” value in the data set with BHK(SR-BI) cells stood at 245%. Besides, the “Induced DiI Uptake” value in the data set with BHK(SR-BI) cells amounted to 0.83 ± 0.02 pmol/µg/mL. In addition, the “Un-induced DiI Uptake” value in the data set with BHK(SR-BI) cells stood at 0.24 ± 0.01 pmol/µg/mL.

Take “DVFQKL{AIB}ELFNQL{AIB}EKWKQV (DVFQKL[Aib]ELFNQL[Aib]EKWKQV) [SEQ ID NO: 35]”: in the data set with BHK(SR-BI) cells, the “Increase Over Un-induced” value came to 264%, the “Induced DiI Uptake” value is 1.26 ± 0.06 pmol/µg/mL and the “Un-induced DiI Uptake” value is 0.35 ± 0.01 pmol/µg/mL.

Turning to “DVFQ{AIB}LKELFNQLLEKWKQV (DVFQ[Aib]LKELFNQLLEKWKQV) [SEQ ID NO: 3]”, in the data set on BHK(SR-BI) cells, the “Increase Over Un-induced” value was determined as 88%, the “Induced DiI Uptake” value worked out at 0.29 ± 0.03 pmol/µg/mL and the “Un-induced DiI Uptake” value came out at 0.16 ± 0.01 pmol/µg/mL.

“DVFQ{AIB}LKELLNQLLEKFKQV (DVFQ[Aib]LKELLNQLLEKFKQV) [SEQ ID NO: 5]”: in the data set on BHK(SR-BI) cells, the “Increase Over Un-induced” value is recorded as 73%, the “Induced DiI Uptake” value was 0.93 ± 0.03 pmol/µg/mL and the “Un-induced DiI Uptake” value was found to be 0.54 ± 0.03 pmol/µg/mL.

For the substance “DV{AIB}QKFLELFNQLLEKWKQV (DV[Aib]QKFLELFNQLLEKWKQV) [SEQ ID NO: 32]”, the “Stability by visual inspection” value is recorded as “Turbid” in data set [1] (DOPC, C16PTX/PL mole ratio 0); “Turbid” in data set [1] (DOPC, C16PTX/PL mole ratio 0.1); “Clear” in data set [1] (POPC, C16PTX/PL mole ratio 0); “Turbid” in data set [1] (POPC, C16PTX/PL mole ratio 0.1). In addition, the “Increase Over Un-induced” value in the data set on BHK(SR-BI) cells was determined as 221%. Moreover, in the data set on BHK(SR-BI) cells, the “Induced DiI Uptake” value was determined as 0.90 ± 0.03 pmol/µg/mL. Moreover, the “Un-induced DiI Uptake” value with BHK(SR-BI) cells was found to be 0.28 ± 0.02 pmol/µg/mL.

With “DV{AIB}QKLFELFNQLLEKWKQV (DV[Aib]QKLFELFNQLLEKWKQV) [SEQ ID NO: 27]”, the “Stability by visual inspection” value in data set [1] (DOPC, C16PTX/PL mole ratio 0) is “Turbid”. For the same substance, the “Stability by visual inspection” value in data set [1] (POPC, C16PTX/PL mole ratio 0) is reported as “Clear”. In addition, in data set [1] (POPC, C16PTX/PL mole ratio 0.1), the “Stability by visual inspection” value was “Turbid”. In addition, in the data set with BHK(SR-BI) cells, the “Increase Over Un-induced” value turned out to be 90%, the “Induced DiI Uptake” value was determined as 0.66 ± 0.02 pmol/µg/mL and the “Un-induced DiI Uptake” value turned out to be 0.34 ± 0.01 pmol/µg/mL.
